For `COc1ccc2c(c1)c(=O)c(S(=O)(=O)N(C)C)cn2C`, the melting point lay within 199 to 201 °C. The result for `c1ccc(Nc2c(-c3ccccc3)sc3ccccc23)cc1` reads 142 to 143 °C; that for `COC(=O)c1c[nH]c(Sc2cc(Cl)c(Cl)cc2Cl)c1`, 165 to 175 °C. The result for `CC(C)Nc1cccnc1N1CCN(C(=O)c2ccc(C(=O)NC[C@H](C)O)cc2)CC1` reads 135 °C; that for `CC(=O)C1CCC2C3CCC4CC(O)C(Cl)CC4(C)C3C(=O)CC12C` (configuration not stated), 185 to 189 °C. The result for `O=S(=O)(Nc1cccc(CCOCc2ccc(-c3cccc(Cl)c3)cc2)c1)C(F)(F)F` reads 105 to 107 °C; that for `CCOP(=O)(OCC)c1nc(N2CCCCC2)nc(N2CCCCC2)n1`, 103 to 105 °C. Take `COC(=O)[C@H](Cc1ccc(O)cc1)Nc1ccccc1C(=O)c1ccccc1`: the melting point is 185 to 186 °C.

With `Cc1cn(C(C)(C)C(=O)N(C)C)nc1-c1ccc(Cl)cc1Cl`, the melting point lay in the range of 110 to 111 °C. The result for `O=C1CN(CC2CCN(c3ncc4ncnc(Nc5ccc(F)c(Cl)c5)c4n3)CC2)CCO1` reads 202 to 204 °C; that for `CC1SC(c2cccnc2)N(C)C1=O` (configuration not stated), 66.5 to 68.5 °C. For `N#Cc1sc(Cl)c(Cl)c1Cl` the value was 63 to 64 °C; for `Fc1cccc(Nc2nc(Cl)nc(NC3CCCCCC3)n2)c1`, 148 °C. For `Cc1ccc(N)c(C(O)(C(F)(F)F)C(F)(F)F)c1` the value was 110 °C; for `COC(=O)c1sc2c(c1C)c1ccccc1n2Cc1ccccc1`, 132 to 134 °C. In the case of `CN1CCC(C(=O)Nc2ccc(CN(C)C3CCOCC3)cc2)=Cc2cc(-c3ccc(C(F)(F)F)cc3)ccc21`, the melting point is 188 °C. The result for `Cc1cc(SC2=C(O)C[C@@](CCc3ccccc3)(C(C)C)OC2=O)c(C(C)C)c2sc(N)nc12` reads 160 to 162 °C. The result for `CCOC(=O)c1conc1-c1ccc(-c2ccccc2)cc1` reads 81 to 82 °C; that for `CCCCCCCCCCCCNC(=O)c1cc(-c2ccc(OC)cc2)cc(-c2cccc(Cl)c2OCC(=O)O)c1`, 114 to 117 °C; that for `CCCOCOCCc1ccc(OCCCOC(=O)C2=C(C)NC(C)=C(C(=O)OC)[C@@H]2c2cccc([N+](=O)[O-])c2)cc1`, less than 50 °C. The result for `CCCCCCCCCCCCCCn1ccc(C(=O)OCC)c1` reads 32 to 33 °C. In turn, `O=C1C(=Cc2ccncc2)CCc2cc(OCCn3ccnc3)ccc21` showed a melting point of 128 to 129 °C. For `NC(=O)CNC(=O)c1ccnc(-c2cccc3cc(COc4cccc(C(F)(F)F)c4)sc23)c1` the value was 185 to 186 °C; for `CC(C)C[C@@H](CO)NC(=O)N1C(=O)C(OC(=O)N2CCN(c3ccncc3)CC2)(c2ccccc2OC(C)C)c2cc(Cl)ccc21` (some centres not stated), 160 to 164 °C; for `Cc1cc(C2N(c3ccccc3)CCN2c2ccccc2)c(O)cc1N(C)C`, 207 to 212 °C. The result for `CCOC(=O)C(Cc1ccc(OCCn2c(=O)sc3cc(C(=NO)C4CC4)ccc32)cc1)OCC(F)(F)F` (configuration not stated) reads 105 to 107 °C; that for `Cc1nc(-c2cn(-c3cc(-c4ccc(C(F)(F)F)cc4)cc(C(F)(F)F)n3)cn2)sc1S(=O)(=O)NC(C)(C)C`, 260 °C. The result for `CC(=O)n1cc(Cl)c(-c2cc(Cl)cc(Cl)c2)n1` reads 125 °C; that for `CC(C)(C)c1ccc(CNC(=O)NCc2ccc(NS(C)(=O)=O)c([N+](=O)[O-])c2)cc1`, 177 to 178 °C; that for `COc1ccc(CCNCC(O)c2cc(OCc3ccccc3)cc(OCc3ccccc3)c2)cc1OC` (configuration not stated), 85 to 86 °C. The compound `Oc1c2c(nn1-c1ccccn1)CCc1cc(-c3ccc4c(c3)OCO4)ccc1-2` gave a melting point of 205 to 206 °C.

Compound `COc1ccc(S(N)(=O)=O)cc1C(O)C(C)N=[N+]=[N-]` (configuration not stated) registered a melting point of 109 to 110 °C. The result for `Cc1cccc(C(=O)Nc2nc(=O)c3ccccc3[nH]2)c1` reads 211 to 213 °C; that for `CCCCCCCN(CCO)c1ccc2c(c1)Oc1cc(=C(C#N)C#N)c3ccccc3c1=N2`, 155 to 157 °C. Compound `CCCCCCOc1cccc(C[C@H](NC(=O)c2coc(NS(C)(=O)=O)n2)[C@H](O)CNCc2cccc(CC)c2)c1` returned a melting point of 85 to 90 °C. `COc1cc(C=CC(=O)Nc2cnc3ccccc3c2-c2ccccc2Cl)cc(OC)c1OC(C)=O` returned a melting point of 237 to 238 °C.

Take `CCC(Oc1ccc(CCC(=O)c2ccc(-c3ccc(C(F)(F)F)cc3)s2)c(Cl)c1Cl)C(=O)O` (configuration not stated): the melting point is 169 to 171 °C. The result for `O=c1n(CCO)c2cc(Br)c(Br)c(Br)c2n1CCO` reads 201 to 204 °C; that for `O=C(Cc1ccncc1)NCc1cccc2c1C(=O)N(C1CCC(=O)NC1=O)C2=O` (configuration not stated), 294 to 296 °C; that for `CCOC(=O)c1c(C(F)F)nc(C(F)(F)F)c(C(=O)OCC)c1Br`, 37 to 43 °C.

The compound `Clc1ccc(Cn2c(-c3ccc4c(c3)OCO4)nc3ccccc32)s1` registered a melting point of 130 to 131 °C. Turning to `CC(=O)N1Cc2cccc3[nH]cc(c23)C1`, the melting point lay in the range of 205 to 206 °C. For `O=[N+]([O-])c1ccc(C(O)C(CO)[N+](=O)[O-])cc1` (configuration not stated) the value was 105 to 107 °C; for `COc1ccc(CSC(C)(C)C2(c3ccc(F)cc3F)CO2)cc1` (configuration not stated), 55 to 56 °C; for `CC(C)(C)OC(=O)N[C@H]1C[C@@H](CON2C(=O)c3ccccc3C2=O)C1`, 120 to 122 °C. In the case of `COc1c(F)cc2c(=O)c(C(=O)O)cn3c2c1CCC3C` (configuration not stated), the melting point was in the range of 234 to 236 °C. The result for `COc1ccc2[nH]c(C)c(/C=C/C(=O)c3cccnc3)c2c1` reads 193 to 195 °C. The result for `CCOC(=O)c1nc2cnn(CC)c2nc1C` reads 64 to 65 °C; that for `CCOC(=O)C1=C(C#N)Nc2ccnc(OC(C)C)c2C1c1ccccc1C(F)(F)F` (configuration not stated), 138 to 140 °C; that for `CCNCC1CCN(c2cc3c(cc2F)c(=O)c(C(=O)O)cn3CC)C1` (configuration not stated), 248 to 252 °C. For `O=C1OC(=O)C(c2ccccc2)=C1Cl` the value was 82 to 83 °C. In turn, `CCn1cc(CN(C(=O)C2CCCc3cc(OCc4ccccc4)ccc32)c2ccc(C(C)C)cc2)cn1` (configuration not stated) displayed a melting point of 122 to 124 °C. The compound `O=[N+]([O-])c1cn(-c2cncc(F)c2)nc1Cl` displayed a melting point of 110 to 111 °C. For `CSC1Oc2ccccc2C1=O` (configuration not stated) the value was 81 to 82 °C; for `CC(C)(C)C1(O)CCN(C(=O)C2c3ccccc3CCc3ccccc32)CC1`, 189 to 190 °C; for `Cc1nn(-c2ccc(C(F)(F)F)cn2)cc1COc1ccc(CCC(=O)O)cc1`, 195 to 196 °C.

Regarding `O=C(Cn1c(=O)c(=O)[nH]c2cc([N+](=O)[O-])c(-n3cccc3)cc21)Nc1ccccc1`, the melting point was more than 300 °C. For the compound `CCn1c2ccc(C)cc2c2ccc3ccccc3c21`, the melting point lay within 111 to 114 °C. The result for `CCc1cccc2c3c([nH]c12)C(CC)(CC(=O)O)OCC3=O` (configuration not stated) reads 200 to 202 °C. For `CCOC(=O)C1=CC(C(=O)c2cc(Cl)ccc2O)=CN2CCc3c([nH]c4ccc(OC)cc34)C12C(=O)OCC` (configuration not stated) the value was 230 °C; for `CCCCc1ncc[nH]1`, 35 to 37 °C; for `CC(C)(C)C1=CC(O)(C(F)(F)F)C=C(C(C)(C)C)C1=O`, 93 to 94 °C. The result for `OCc1c(F)cc(O)cc1Cl` reads 125 to 127 °C.

`CC(C)(C)c1ccc(C(=O)Nc2cn3cc(-n4ccnc4)ccc3n2)cn1` gave a melting point of 242 to 245 °C. In turn, `CCOC(=O)c1ccc(Cl)c(Cl)c1` displayed a melting point of 33 to 35 °C.

Consider `CNC1(c2ccc(C#CC(=O)Nc3ccc(-c4ccc(Cl)cc4)cc3)cc2)CC1`, for which the melting point was found to be 217 °C. The result for `CC(C)(C)OC(=O)CCN(CCC12CC3CC(CC(C3)C1)C2)C(=O)NCCCc1ccncc1` reads 124 to 127 °C; that for `O=C(O)c1cccc(-c2ccc3c(c2)C(Oc2ccc(Cl)cc2Cl)CCC3)c1` (configuration not stated), 176 to 181 °C. For `CC(C)(C)c1cc(CCc2ccccc2NC(=O)NCCN2CCOCC2)cc(C(C)(C)C)c1O` the value was 166 to 167 °C.

In turn, `CCc1cc2c(s1)SCCc1cc(=O)n(C)nc1-2` gave a melting point of 168 to 170 °C. The result for `CCCCNc1cc(Cl)nnc1NN` reads 170 to 172 °C; that for `COC(=O)C1C=CCn2c(=O)n(CCl)c(=O)n21` (configuration not stated), 164 to 165 °C; that for `Clc1cccc(-c2nnc3c4ccc(Cl)cc4c(-c4ccccc4)nn23)c1`, 227 to 230 °C.

For the compound `CCOC(=O)CCC(C)c1ccc(O)cc1` (configuration not stated), the melting point is 32 to 34 °C. Take `CC(C#CCOc1cccc(Oc2ccccn2)c1)N(O)C(N)=O` (configuration not stated): the melting point is 117 to 119 °C. For `Cc1nc(CCOc2ccc(CC3SC(=N)NC3=O)cc2)oc1-c1ccccc1` (configuration not stated) the value was 194 to 195 °C. `C=CCSc1ccc(OCCO)nn1`: the melting point was 38 to 40 °C. The result for `CCCN(CCCCc1coc2c(OC)cccc12)C1COc2c(F)ccc(C(N)=O)c2C1` (configuration not stated) reads 99 to 110 °C; that for `CCOC(=O)n1[nH]c(=O)c2c([N+](=O)[O-])cccc21`, 234 to 236 °C; that for `CCc1nc2c(cnn2CC)c(NC2CCOCC2)c1CNC(=O)c1cccc(C(=O)NCc2cc(Cl)cc(-c3cccc(CN4CCNC(C)C4)c3)c2)c1` (configuration not stated), 119 to 121 °C. For `FC(F)(F)c1ccc(OC2(c3ccccc3)CCNCC2)cc1` the value was 104 to 105 °C.

As to `Cc1cc(-c2cnn3c(C(F)(F)F)cc(-c4ccc(C(F)(F)F)c(OCC(F)(F)F)c4)nc23)cc(C)n1`, the melting point is 245 °C. For `CC1(C)C=C(N2CCCC2=O)c2cc(C#N)ccc2C1` the value was 131 to 132 °C. `Cn1nc(-c2ccc(Cl)cc2)nc1-c1cccnc1` registered a melting point of 157 to 158 °C. `CNC(=O)OC1CC2(CCN(CCCC(=O)c3ccc(F)cc3)C2)c2ccccc21` (configuration not stated): the melting point is 167 to 169 °C. For `N#Cc1cnccc1CCCOc1cccnc1Oc1cccc(Cl)c1` the value was 146 to 150 °C; for `Nc1ccc(C(=O)c2ccc(N)cc2)cc1`, 241 °C.

For orientation: melting point means the temperature of the solid-liquid transition.

(Values after a melting point compilation (Tetko et al.; mined from patent text by program, amines drawn as free bases though some values may be those of a salt).)
